Measured values reported in patent US20220048919A1, “HETEROARYLDIHYDROPYRIMIDINE DERIVATIVES AND METHODS OF TREATING HEPATITIS B INFECTIONS” (Janssen Phrmaceutica NV, priority 2018, published 2022).

Key:
[1] = system: HBV; assay: Anti-HBV activity in HepG2.2.15 cells (HBV DNA in culture medium by qPCR); type: cell-based; settings: Hepatitis B virus, 144 h, 6 days of compound treatment
Description: (§1) HepG2.2.15 (the HepG2.2.15 cell line can be produced by transfection of the HepG2 cell line as described in Sells, Chen, and Acs 1987 (Proc. Natl. Acad. Sci. USA 84:1005-1009), and the HepG2 cell line is available from ATCC® under number HB-8065™).
(§2) HepG2.2.15 cells were plated into 96-well plate in 2% FBS culture medium at the density of 40,000 cells/well and 5,000 cells/well for HBV inhibitory activity and cytotoxicity determination, respectively. After incubation at 37° C., 5% CO2 overnight, cells were treated with medium containing compounds for 6 days with medium and compounds refreshed after 3 days of treatment. Each compound was tested in a 1:3 serial dilutions at 8 different concentrations in triplicate. The highest concentration of the compounds was 10 uM or 1 uM for anti-HBV activity assay and 100 uM for cytotoxicity determination.
The change of HBV DNA level induced by the compounds was assessed by quantitative real-time polymerase chain reaction (qPCR). Briefly, the HBV DNA in the culture medium was extracted using QIAamp 96 DNA Blood Kit according to the manual and then quantified by real-time PCR assay using the primers and probe in the table 1 below.
(§3) EC50 and CC50 values are calculated by the […] PRISM software.

[2] = Cytotoxicity determination in HepG2.2.15 cells (CCK-8 cell viability); type: cell-based; settings: human, 6 days of compound treatment, CCK-8 assay
Description: as §1, §2
Cell viability was determined by CCK-8 assay. After 6 days of compounds treatment, 20 μl CCK-8 reagents were added to each well of cytotoxicity assay plates. Cell plates were incubated at 37° C., 5% CO2 for 2.5 h. The absorbance at 450 nm wavelength and the absorbance at 630 nm wavelength as reference was measured.
as §3

COC(=O)C1=C(CN2CCN3C(=O)N(CC(C)(C)C(=O)O)C[C@]3(C)C2)NC(c2nccs2)=N[C@H]1c1ccc(F)cc1Br (relative stereo) [Compound 3A, 3-((S*)-7-(((R*)-6-(2-Bromo-4-fluorophenyl)-5-(methoxycarbonyl)-2-(thiazol-2-yl)-3,6-dihydropyrimidin-4-yl)methyl)-8a-methyl-3-oxohexahydroimidazo[1,5-a]pyrazin-2(3H)-yl)-2,2-dimethylpropanoic Acid]
EC50 [1]: 0.038 µM | CC50 at 6 days [2]: 26.7 µM

CCOC(=O)C1=C(CN2CCN3C(=O)N([C@H]4CC[C@H](C(=O)O)CC4)C[C@]3(C)C2)NC(c2nccs2)=N[C@H]1c1cccc(F)c1C (relative stereo) [Compound 5A, (trans)-4-((S)-7-(((S*)-5-(Ethoxycarbonyl)-6-(3-fluoro-2-methylphenyl)-2-(thiazol-2-yl)-3,6-dihydropyrimidin-4-yl)methyl)-8a-methyl-3-oxohexahydroimidazo[1,5-a]pyrazin-2(3H)-yl)cyclohexanecarboxylic Acid]
EC50 [1]: 0.034 µM | CC50 at 6 days [2]: 9.2 µM

CCOC(=O)C1=C(CN2CCN3C(=O)N(CC(C)(C)C(=O)O)CC3(C)C2)NC(c2nccs2)=N[C@H]1c1cccc(F)c1C (single isomer, unassigned) [Compound 1B]
EC50 [1]: 0.009 µM | CC50 at 6 days [2]: 24.3 µM

CCOC(=O)C1=C(CN2CCN3C(=O)N(CC(C)(C)C(=O)O)C[C@]3(C)C2)NC(c2nccs2)=N[C@H]1c1cccc(F)c1Cl (single isomer, unassigned) [Compound 2A, (S*)-3-(-7-(((R*)-6-(2-Chloro-3-fluorophenyl)-5-(ethoxycarbonyl)-2-(thiazol-2-yl)-3,6-dihydropyrimidin-4-yl)methyl)-8a-methyl-3-oxohexahydroimidazo[1,5-a]pyrazin-2(3H)-yl)-2,2-dimethylpropanoic Acid]
EC50 [1]: 0.016 µM | CC50 at 6 days [2]: 19.4 µM

CCOC(=O)C1=C(CN2CCN3C(=O)N(CC(C)(C)C(=O)O)CC3(CC)C2)NC(c2nccs2)=N[C@H]1c1cccc(F)c1C (single isomer, unassigned) [Compound 4B, 3-((S*)-7-(((S)-5-(Ethoxycarbonyl)-6-(3-fluoro-2-methylphenyl)-2-(thiazol-2-yl)-3,6-dihydropyrimidin-4-yl)methyl)-8a-ethyl-3-oxohexahydroimidazo[1,5-a]pyrazin-2(3H)-yl)-2,2-dimethylpropanoic Acid]
EC50 [1]: 0.165 µM | CC50 at 6 days [2]: 18.5 µM

CCOC(=O)C1=C(CN2CCN3C(=S)N(CC(C)(C)C(=O)O)CC3(C)C2)NC(c2nccs2)=N[C@H]1c1cccc(F)c1C (single isomer, unassigned) [Compound 6A, 3-((R*)-7-(((S)-5-(Ethoxycarbonyl)-6-(3-fluoro-2-methylphenyl)-2-(thiazol-2-yl)-3,6-dihydropyrimidin-4-yl)methyl)-8a-methyl-3-thioxohexahydroimidazo[1,5-a]pyrazin-2(3H)-yl)-2,2-dimethylpropanoic Acid]
EC50 [1]: 0.012 µM | CC50 at 6 days [2]: 13 µM
